Reference: the NIST ThermoML archive (doi:10.1021/je201102x)
± gives the expanded uncertainty stated by the source.

Experiment: not given
Conditions: 293.15 K; 101.33 kPa; Liquid; Vibrating tube method
Work on `CCC(=O)O` [propanoic acid] yielded a mass density of 993.56 ± 0.09 kg/m3. Molecule `CC(C)CO` [2-methyl-1-propanol] has a mass density of 801.99 ± 0.24 kg/m3. Work on `CC(=O)O` [acetic acid] yielded a mass density of 1049.31 ± 0.08 kg/m3. `CCC(C)(C)O` [2-methylbutan-2-ol] gave a mass density of 808.98 ± 0.14 kg/m3. Work on `CCC(C)O` (stereo not given) [butan-2-ol] yielded a mass density of 806.75 ± 0.24 kg/m3.

Same assay, conditions: 298.15 K; 101.33 kPa; Liquid; Vibrating tube method
For `CCC(=O)O` [propanoic acid], the mass density was 988.15 ± 0.1 kg/m3. `CC(C)CO` [2-methyl-1-propanol] gave a mass density of 798.13 ± 0.24 kg/m3. `CC(=O)O` [acetic acid] gave a mass density of 1043.65 ± 0.08 kg/m3. For `CCC(C)(C)O` [2-methylbutan-2-ol], the mass density was 804.39 ± 0.15 kg/m3. In the case of `CCC(C)O` (stereo not given) [butan-2-ol], the mass density is reported as 802.62 ± 0.24 kg/m3.

Same assay, conditions: 303.15 K; 101.33 kPa; Liquid; Vibrating tube method
For `CCC(=O)O` [propanoic acid], the mass density was 982.75 ± 0.1 kg/m3. With `CC(C)CO` [2-methyl-1-propanol] the mass density was 794.24 ± 0.24 kg/m3. Molecule `CC(=O)O` [acetic acid] has a mass density of 1037.99 ± 0.07 kg/m3. `CCC(C)(C)O` [2-methylbutan-2-ol] showed a mass density of 799.75 ± 0.15 kg/m3. Molecule `CCC(C)O` (stereo not given) [butan-2-ol] has a mass density of 798.43 ± 0.24 kg/m3.

Same assay, conditions: 313.15 K; 101.33 kPa; Liquid; Vibrating tube method
`CCC(=O)O` [propanoic acid] gave a mass density of 971.96 ± 0.1 kg/m3. Molecule `CC(C)CO` [2-methyl-1-propanol] has a mass density of 786.28 ± 0.24 kg/m3. For `CC(=O)O` [acetic acid], the mass density was 1026.68 ± 0.07 kg/m3. Molecule `CCC(C)(C)O` [2-methylbutan-2-ol] has a mass density of 790.27 ± 0.15 kg/m3. Work on `CCC(C)O` (stereo not given) [butan-2-ol] yielded a mass density of 789.75 ± 0.24 kg/m3.

Same assay, conditions: 323.15 K; 101.33 kPa; Liquid; Vibrating tube method
In the case of `CCC(=O)O` [propanoic acid], the mass density is reported as 961.16 ± 0.11 kg/m3. For `CC(C)CO` [2-methyl-1-propanol], the mass density was 778.09 ± 0.24 kg/m3. Work on `CC(=O)O` [acetic acid] yielded a mass density of 1015.36 ± 0.07 kg/m3. With `CCC(C)(C)O` [2-methylbutan-2-ol] the mass density was 780.46 ± 0.16 kg/m3. With `CCC(C)O` (stereo not given) [butan-2-ol] the mass density was 780.65 ± 0.24 kg/m3.

Same assay, conditions: 333.15 K; 101.33 kPa; Liquid; Vibrating tube method
For `CCC(=O)O` [propanoic acid], the mass density was 950.35 ± 0.11 kg/m3. Molecule `CC(C)CO` [2-methyl-1-propanol] has a mass density of 769.6 ± 0.24 kg/m3. For `CC(=O)O` [acetic acid], the mass density was 1004.01 ± 0.07 kg/m3. For `CCC(C)(C)O` [2-methylbutan-2-ol], the mass density was 770.27 ± 0.16 kg/m3. `CCC(C)O` (stereo not given) [butan-2-ol] gave a mass density of 771.1 ± 0.24 kg/m3.

Experiment: refractive index (Na D-line) (dimensionless)
Conditions: 293.15 K; 101.33 kPa; Liquid; Standard Abbe refractometry
Work on `CCC(=O)O` [propanoic acid] yielded a refractive index of 1.3835 ± 0.0008. For `CC(C)CO` [2-methyl-1-propanol], the refractive index was 1.3929 ± 0.0008. For `CC(=O)O` [acetic acid], the refractive index was 1.3687 ± 0.0008. `CCC(C)(C)O` [2-methylbutan-2-ol] showed a refractive index of 1.4016 ± 0.0008. For `CCC(C)O` (stereo not given) [butan-2-ol], the refractive index was 1.3943 ± 0.0008.
